Experimental data from patent US9067932B2, “Pyrazolopyridine kinase inhibitors” (Vertex Pharmaceuticals Incorporated, priority 2010, dated 2015).
Read-outs that look alike come from different tables or passages of the source.

How the values were obtained:
Format in all cases: biochemical
[1] = target: PKC theta kinase (Homo sapiens, UniProt Q04759); assay: PKC theta coupled-enzyme (NADH consumption) kinase assay; settings: 18 nM PKC theta, 240 μM ATP, 30° C., initial rate at 340 nm
Procedure: (§1) An assay buffer solution was prepared which consisted of 100 mM HEPES (pH 7.5), 10 mM MgCl2, 25 mM NaCl, 0.1 mM EDTA and 0.01% Brij. […] To 60 μL of this enzyme buffer, in a 384 well plate, was added 2 μL of VRT stock solution in DMSO. […] The enzyme reaction was initiated by the addition of 5 μL stock ATP solution prepared in assay buffer to a final assay concentration of 240 μM. Initial rate data was determined from the rate of change of absorbance at 340 nm (corresponding to stoichiometric consumption of NADH) using a Molecular Devices Spectramax plate reader (Sunnyvale, Calif.) over 15 mins at 30° C. For each Ki determination 12 data points covering the VRT concentration range of 0-20 μM were obtained in duplicate (DMSO stocks were prepared from an initial 10 mM VRT stock with subsequent 1:2 serial dilutions). Ki values were calculated from initial rate data by non-linear regression using the Prism software package (Prism 4.0a, Graphpad Software, San Diego, Calif.).

[2] = target: PKC delta kinase (Homo sapiens, UniProt Q05655); assay: PKC delta coupled-enzyme (NADH consumption) kinase assay; settings: 46 nM PKC delta, 150 μM ATP, 30° C., initial rate at 340 nm
Procedure: as §1, with “To 16” for “To 60”, “added 1” for “added 2”, “of 16” for “of 5”, “of 150” for “of 240”

[3] = target: PKC alpha kinase (Homo sapiens, UniProt P17252); assay: PKC alpha coupled-enzyme (NADH consumption) kinase assay; settings: 4.5 nM PKC alpha, 130 μM ATP, 100 μM CaCl2, 30° C.
Procedure: An assay buffer solution was prepared which consisted of 100 mM HEPES (pH 7.5), 10 mM MgCl2, 25 mM NaCl, 0.1 mM EDTA, 100 μM CaCl2 and 0.01% Brij. An enzyme buffer containing reagents to final assay concentrations of 0.002% Triton X-100, 100 μg/mL Phosphatidylserine, 20 μg/mL Diacylglycerol, 360 μM NADH, 3 mM phosphoenolpyruvate, 70 μg/mL pyruvate kinase, 24 μg/mL lactate dehydrogenase, 2 mM DTT, 150 μM substrate peptide ([…] SEQ ID NO. 1) and 4.5 nM PKC alpha kinase was prepared in assay buffer. To 16 μL of this enzyme buffer, in a 384 well plate, was added 1 μL of VRT stock solution in DMSO. The mixture was allowed to equilibrate for 10 mins at 30° C. The enzyme reaction was initiated by the addition of 16 μL stock ATP solution prepared in assay buffer to a final assay concentration of 130 μM. Initial rate data was determined from the rate of change of absorbance at 340 nm (corresponding to stoichiometric consumption of NADH) using a Molecular Devices Spectramax plate reader (Sunnyvale, Calif.) over 15 mins at 30° C. For each Ki determination 12 data points covering the VRT concentration range of 0-20 μM were obtained in duplicate (DMSO stocks were prepared from an initial 10 mM VRT stock with subsequent 1:2 serial dilutions). Ki values were calculated from initial rate data by non-linear regression using the Prism software package (Prism 4.0a, Graphpad Software, San Diego, Calif.).

PKC delta kinase, sequence (Q05655 whole entry): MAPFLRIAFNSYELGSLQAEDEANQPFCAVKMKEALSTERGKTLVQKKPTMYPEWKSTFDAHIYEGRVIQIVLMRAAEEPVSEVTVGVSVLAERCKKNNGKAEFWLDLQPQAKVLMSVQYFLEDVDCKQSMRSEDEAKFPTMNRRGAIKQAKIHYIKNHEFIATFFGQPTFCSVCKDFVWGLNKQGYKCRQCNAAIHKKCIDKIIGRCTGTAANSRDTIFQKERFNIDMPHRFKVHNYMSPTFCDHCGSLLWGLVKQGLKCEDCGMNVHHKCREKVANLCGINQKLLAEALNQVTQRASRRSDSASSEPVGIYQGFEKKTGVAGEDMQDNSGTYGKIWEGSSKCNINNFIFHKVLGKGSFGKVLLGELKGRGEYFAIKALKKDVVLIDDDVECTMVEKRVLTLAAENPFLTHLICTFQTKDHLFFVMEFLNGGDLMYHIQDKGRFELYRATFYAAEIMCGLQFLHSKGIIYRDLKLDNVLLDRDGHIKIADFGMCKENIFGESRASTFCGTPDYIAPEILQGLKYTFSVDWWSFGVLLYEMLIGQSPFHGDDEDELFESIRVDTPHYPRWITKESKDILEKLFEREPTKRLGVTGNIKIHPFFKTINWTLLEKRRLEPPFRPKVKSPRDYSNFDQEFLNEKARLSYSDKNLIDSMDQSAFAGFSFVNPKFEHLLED
PKC theta kinase, sequence (Q04759 whole entry): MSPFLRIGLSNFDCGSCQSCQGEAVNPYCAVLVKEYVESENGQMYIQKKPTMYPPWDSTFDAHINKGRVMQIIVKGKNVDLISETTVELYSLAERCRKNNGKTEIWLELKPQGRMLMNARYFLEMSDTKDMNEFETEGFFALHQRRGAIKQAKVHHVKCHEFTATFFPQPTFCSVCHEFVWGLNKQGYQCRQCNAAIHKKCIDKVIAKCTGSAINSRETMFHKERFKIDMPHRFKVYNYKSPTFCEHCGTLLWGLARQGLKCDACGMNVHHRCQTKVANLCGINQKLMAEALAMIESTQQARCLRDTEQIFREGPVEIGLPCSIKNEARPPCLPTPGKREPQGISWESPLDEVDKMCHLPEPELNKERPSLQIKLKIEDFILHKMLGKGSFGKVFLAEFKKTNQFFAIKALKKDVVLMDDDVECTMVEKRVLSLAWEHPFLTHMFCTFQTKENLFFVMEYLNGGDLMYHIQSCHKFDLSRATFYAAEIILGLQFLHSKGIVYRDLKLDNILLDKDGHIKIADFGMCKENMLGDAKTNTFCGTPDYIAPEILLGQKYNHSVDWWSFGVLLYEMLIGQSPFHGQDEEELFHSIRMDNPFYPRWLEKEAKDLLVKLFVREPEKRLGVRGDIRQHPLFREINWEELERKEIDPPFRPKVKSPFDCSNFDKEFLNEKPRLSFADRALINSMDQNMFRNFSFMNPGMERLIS

Structure (SMILES) | Ki ([1]; read-out: Ki PKC theta) [nM] | Ki [2] [nM] | Ki ([3]; read-out: Ki PKC alpha) [nM] | Ki ([1]; Ki PKC theta) [nM] | Ki ([3]; Ki PKC alpha) [nM]
CC(C)C(O)C1CN(c2nc(-c3n[nH]c4ncccc34)c(F)cc2Cl)CCN1 (stereo not drawn) [Compound 21] | < 50 | < 500 | < 2800 |  | 
CC(C)[C@@](C)(O)[C@@H]1CN(c2nc(-c3n[nH]c4ncccc34)c(F)cc2C#N)CCN1 [Compound 10] |  |  | > 1250 |  | 
CC(C)(F)C(C)(O)C1CN(c2nc(-c3n[nH]c4ncccc34)c(F)cc2F)CCN1 (stereo not drawn) [Compound 11] | < 1 | < 10 | < 2800 |  | 
CC(C)[C@@](C)(O)[C@@H]1CN(c2nc(-c3n[nH]c4ncccc34)c(F)cc2F)CCN1 [Compound 1, (R)-2-((S)-4-(3,5-difluoro-6-(1H-pyrazolo[3,4-b]pyridin-3-yl)pyridin-2-yl)piperazin-2-yl)-3-methylbutan-2-ol] |  | < 50 |  | < 1 | < 500
CC(C)C(O)C1CN(c2nc(-c3n[nH]c4ncccc34)c(F)cc2Cl)CCN1 (stereo not drawn) [Compound 20] | < 1 | < 50 | < 500 |  | 
CC(C)[C@@](C)(O)[C@@H]1CN(c2nc(-c3n[nH]c4ncccc34)c(F)cc2O)CCN1 [Compound 32] | < 1 | < 10 | < 500 |  | 
OC(C1CC1)C1CN(c2nc(-c3n[nH]c4ncccc34)c(F)cc2F)CCN1 (stereo not drawn) [Compound 29] | < 1 | < 50 | < 500 |  | 
CC(C)C(N)C1CCN(c2nc(-c3n[nH]c4ncccc34)c(F)cc2F)C1 (stereo not drawn) [Compound 22] | < 50 | < 500 | < 2800 |  | 
CC(C)[C@@](C)(O)C1CN(c2nc(-c3n[nH]c4ncccc34)c(C#N)cc2F)CCN1 (stereo partly drawn) [Compound 34] | < 50 | > 1250 | > 1250 |  | 
CC(C)(C)C(O)C1CN(c2nc(-c3n[nH]c4ncccc34)c(F)cc2F)CCN1 (stereo not drawn) [Compound 27] | < 1 | < 10 | < 500 |  | 
CC(C)[C@@](C)(O)[C@@H]1CN(c2nc(-c3n[nH]c4ncccc34)c(F)cc2Cl)CCN1 [Compound 9, (R)-2-((S)-4-(3-chloro-5-fluoro-6-(1H-pyrazolo[3,4-b]pyridin-3-yl)pyridin-2-yl)piperazin-2-yl)-3-methylbutan-2-ol] | < 1 | < 50 | < 500 |  | 
CC(C)[C@@](C)(O)[C@@H]1CN(c2nc(-c3n[nH]c4ncccc34)c(C#N)cc2F)CCN1 [Compound 43] | < 50 | > 1250 | > 1250 |  | 
CC(C)(F)C(C)(O)C1CN(c2nc(-c3n[nH]c4ncccc34)c(F)cc2F)CCN1 (stereo not drawn) [Compound 12] |  | < 50 | < 500 |  | 
CC(C)(O)[C@@](C)(O)[C@@H]1CN(c2nc(-c3n[nH]c4ncccc34)c(F)cc2Cl)CCN1 [Compound 42] | < 1 | < 50 | < 2800 |  | 
CC[C@H](O)[C@@H]1CN(c2nc(-c3n[nH]c4ncccc34)c(F)cc2F)CCN1 [Compound 25] | < 50 | < 500 | > 1250 |  | 
COCC(C)(O)C1CN(c2nc(-c3n[nH]c4ncccc34)c(F)cc2F)CCN1 (stereo not drawn) [Compound 16] | < 50 | < 500 | > 1250 |  | 
CC1(C)CC1(O)C1CN(c2nc(-c3n[nH]c4ncccc34)c(F)cc2F)CCN1 (stereo not drawn) [Compound 2] | < 1 | < 10 | < 500 |  | 
CC(CO)[C@@](C)(O)[C@@H]1CN(c2nc(-c3n[nH]c4ncccc34)c(F)cc2F)CCN1 (stereo partly drawn) [Compound 40] | < 1 | < 50 | < 500 |  | 
CC(C)C(N)[C@H]1CCN(c2nc(-c3n[nH]c4ncccc34)c(C#N)cc2F)C1 (single isomer, unassigned) [Compound 36] | < 500 | > 1250 | > 1250 |  | 
